Laboratory results from PMC10948889, “Differential scanning fluorimetry to assess PFAS binding to bovine serum albumin protein” (Scientific Reports, 2024).
Read-outs that look alike come from different tables or passages of the source.

How the values were obtained:
[1] = target: T1, bovine serum albumin (BSA) (Bos taurus, UniProt P02769); assay: Label-free differential scanning fluorimetry, BSA melting temperature shift (protein stabilization); type: binding; settings: for Stabilizing effect on BSA folded structure (ΔTm): ligand:BSA ratios 0:1 to 4:1, 10 μM BSA, pH 7.4 PBS
T1 construct: purchased Sigma-Aldrich (St. Louis, MO)
Description: (§1) Bovine serum albumin (lyophilized powder, 99% fatty acid free) was obtained from Sigma-Aldrich (St. Louis, MO). A BSA concentration of 10 μM in pH 7.4 phosphate buffered saline (PBS) was used in each experiment. The solution of BSA was kept at 4 °C prior to use.
(§2) Experiments were conducted using a Tycho NT.6 differential scanning fluorimeter (NanoTemper, Munich, Germany). PFAS was added to 2 mL of the stock BSA solution to obtain the PFAS:BSA or FA:BSA ratios of 0:1, 0.5:1, 1:1, 2:1, 3:1, and 4:1. Solutions were prepared a day in advance of the experiment and stored at 4 °C. Immediately prior to analysis, each sample was loaded into a 1 mm diameter glass capillary and placed in the instrument. […] Fluorescence intensity was measured at 0.1 °C intervals at emission wavelengths of 330 and 350 nm. The ratio of the intensity at these wavelengths, I350/I330, was used to account for blue shifts in the emission peak wavelengths with increasing temperature. The minimum value of the first derivative of the I350/I330 curve with respect to temperature, denoting the midpoint of the melting transition where the fraction of folded to unfolded protein is 1, was taken as the melting temperature Tm. Each experiment was performed in triplicate.

[2] = parameters: method as in PMID 29185060; settings: octanol/water, EPA CompTox Chemicals Dashboard; cited from earlier work
[3] = parameters: method as in PMID 29185060; settings: octanol/water; experimental average (in parentheses), EPA CompTox Chemicals Dashboard; cited from earlier work
[4] = target: T1, bovine serum albumin (BSA); assay: Tryptophan fluorescence quenching from DSF, Hill adsorption model; type: binding; settings: 35 °C to 50 °C
Description: as §1
Experiments were conducted using a Tycho NT.6 differential scanning fluorimeter (NanoTemper, Munich, Germany). PFAS was added to 2 mL of the stock BSA solution to obtain the PFAS:BSA or FA:BSA ratios of 0:1, 0.5:1, 1:1, 2:1, 3:1, and 4:1. Solutions were prepared a day in advance of the experiment and stored at 4 °C. Immediately prior to analysis, each sample was loaded into a 1 mm diameter glass capillary and placed in the instrument. Thermal scans were conducted from 35 to 95 °C at a scan rate of […] with a 285 nm excitation wavelength. Fluorescence intensity was measured at 0.1 °C intervals at emission wavelengths of 330 and 350 nm. The ratio of the intensity at these wavelengths, I350/I330, was used to account for blue shifts in the emission peak wavelengths with increasing temperature. The minimum value of the first derivative of the I350/I330 curve with respect to temperature, denoting the midpoint of the melting transition where the fraction of folded to unfolded protein is 1, was taken as the melting temperature Tm. Each experiment was performed in triplicate. The same procedure was used for the control ligand warfarin.
The Hill model has been used to correct for the presence of a fluorescent protein–ligand complex and binding cooperativity[21],[34].4 I0-I/I0-Ires=KHillQ^nHill/1+KHillQ^nHill
I0 and I are the fluorescence intensity of BSA in the absence and presence of the ligand and Ires accounts for residual fluorescence at infinite quencher concentration. KHill and nHill are the Hill binding constant and the cooperativity constant, respectively, and [Q] is the concentration of added quencher (PFAS or FA).

[5] = target: T1, bovine serum albumin (BSA); assay: Label-free differential scanning fluorimetry, equilibrium-based binding model near BSA melting temperature; settings: for Ka (association constant): 61 °C, 10 μM BSA in pH 7.4 PBS, fit to Eqs. (1) and (2), standard error in parentheses
Description: as §1
as §2, with “PFAS was added to 2 mL of the stock BSA solution to obtain the PFAS:BSA or FA:BSA ratios of 0:1, 0.5:1, 1:1, 2:1, 3:1, and 4:1.” left out
As described by Eftink and Ghiron[44], baseline subtraction of the raw fluorescence intensity data collected at 350 nm was performed at both high and low temperatures. The plots were then normalized by dividing by the maximum intensity value.
The term fU is the fraction of unfolded protein based on the concentration of unfolded protein, [U], divided by the total protein, [P]t, which is the sum of [U], folded protein [F], and folded protein with bound ligand [FL]. [L] is the total free ligand by correcting the total ligand concentration, [L]t, which is a main benefit of this model. KU represents the equilibrium between folded and unfolded protein, and Kd is the ligand dissociation constant from the bound to unbound states.3 Kd=Ka-1=F[L]/[FL]

cattle = settings: varies by sex; cited from earlier work
[6] = ligand:BSA ratio up to 4:1, native protein Tm 62 °C

T1 sequence (P02769 25-607): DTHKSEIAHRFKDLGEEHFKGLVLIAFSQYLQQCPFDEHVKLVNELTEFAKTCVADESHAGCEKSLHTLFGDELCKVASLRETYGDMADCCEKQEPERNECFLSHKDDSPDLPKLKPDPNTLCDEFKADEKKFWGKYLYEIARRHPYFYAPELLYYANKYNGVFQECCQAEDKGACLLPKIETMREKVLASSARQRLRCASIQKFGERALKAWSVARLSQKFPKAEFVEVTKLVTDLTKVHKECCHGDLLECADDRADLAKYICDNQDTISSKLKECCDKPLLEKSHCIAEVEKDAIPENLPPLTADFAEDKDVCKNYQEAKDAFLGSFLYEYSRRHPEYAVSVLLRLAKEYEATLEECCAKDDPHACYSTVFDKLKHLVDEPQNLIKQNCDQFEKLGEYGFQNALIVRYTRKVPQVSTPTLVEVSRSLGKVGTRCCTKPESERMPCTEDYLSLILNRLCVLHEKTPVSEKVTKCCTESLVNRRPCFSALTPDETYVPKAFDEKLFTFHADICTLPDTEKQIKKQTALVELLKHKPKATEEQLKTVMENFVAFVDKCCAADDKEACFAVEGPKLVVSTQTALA

Compound | Tm of BSA with ligand [1, 6] [°C] | Log Kow (predicted average) [2] | Log Kow (experimental average) [3] | Temperature dependence of KHill (Hill association constant) [4] | Kd [5] [µM] | Stabilizing effect on BSA folded structure (ΔTm) [1] | Ka (association constant) [5] | Tm of BSA with ligand [1] [°C] | half-life (cattle) [days]
O=C(O)C(F)(F)C(F)(F)C(F)(F)C(F)(F)C(F)(F)C(F)(F)C(F)(F)F [PFOA, Perfluorooctanoic acid] | 69 to 71 | 5.68 | 3.10 | increasing with temperature | 41 |  |  |  | 
CCCCCCCC(=O)O [OA, Octanoic acid] |  | 2.99 | 3.05 |  |  |  |  |  | 
CCCCCCCCC(=O)O [NA, Nonanoic acid] |  | 3.41 | 3.42 |  | 0.341 |  |  |  | 
O=C(O)C(F)(OC(F)(F)C(F)(F)C(F)(F)F)C(F)(F)F (stereo not drawn) [GenX, Perfluoro-2-methyl-3-oxahexanoic acid] |  | 5.41 |  | does not change with temperature | 50.5 | little stabilization |  |  | 
CCCCCCCCCC(=O)O [DA, Decanoic acid] |  | 4.03 |  |  | 27.6 |  |  |  | 
O=C(O)C(F)(F)C(F)(F)C(F)(F)C(F)(F)C(F)(F)C(F)(F)C(F)(F)C(F)(F)C(F)(F)F [PFDA, Perfluorodecanoic acid] |  | 7.32 | 4.15 | increasing with temperature |  | no measurable protein stabilization | 0.33 (0.26) 10^4 M^−1 |  | 
O=S(=O)([O-])C(F)(F)C(F)(F)C(F)(F)C(F)(F)F.[Na+] [PFBS, Sodium perfluorobutylsulfonate] |  | 2.20 |  |  |  | little stabilization | 2.08 (0.61) 10^4 M^−1 |  | 
O=C(O)C(F)(F)C(F)(F)C(F)(F)C(F)(F)C(F)(F)C(F)(F)C(F)(F)C(F)(F)F [PFNA, Perfluorononanoic acid] |  | 6.51 | 3.54 | increasing with temperature |  | greatest stabilizing effect |  | 69 to 71 | 
O=S(=O)(O)C(F)(F)C(F)(F)C(F)(F)C(F)(F)C(F)(F)C(F)(F)C(F)(F)C(F)(F)F [PFOS, Sodium perfluorooctanesulfonate] |  | 4.94 |  |  |  | minimal shift Tm |  |  | 39 to 120
O=S(=O)(O)C(F)(F)C(F)(F)C(F)(F)C(F)(F)C(F)(F)C(F)(F)F [PFHxS, Sodium perfluorohexanesulfonate] | 69 to 71 | 2.91 |  |  | 10.6 | greatest stabilizing effect |  |  | 
